From patent US20180214395A1 (priority 2017, published 2018)

Experiment: SAD study: cardiac safety (ECG, telemetry, QTcF prolongation)

## CCC(=O)C(C[C@H](C)N(C)C)(c1ccccc1)c1ccccc1 [d-methadone]
5 mg (N = 6), 0.5 h
  Overall ECG result Abnormal, NCS: 0 n (%)
  Overall ECG result Normal: 6 n (%)
5 mg (N = 6), 1 h
  Overall ECG result Abnormal, NCS: 1 n (%)
  Overall ECG result Normal: 5 n (%)
5 mg (N = 6), 2 h
  Overall ECG result Abnormal, NCS: 3 n (%)
  Overall ECG result Normal: 3 n (%)
5 mg (N = 6), 3 h
  Overall ECG result Abnormal, NCS: 2 n (%)
  Overall ECG result Normal: 4 n (%)
5 mg (N = 6), 5 h
  Overall ECG result Abnormal, NCS: 2 n (%)
  Overall ECG result Normal: 4 n (%)
5 mg (N = 6), 8 h
  Overall ECG result Abnormal, NCS: 0 n (%)
  Overall ECG result Normal: 6 n (%)
5 mg (N = 6), 12 h
  Overall ECG result Abnormal, NCS: 0 n (%)
  Overall ECG result Normal: 6 n (%)
5 mg (N = 6), 24 h
  Overall ECG result Abnormal, NCS: 1 n (%)
  Overall ECG result Normal: 5 n (%)
5 mg (N = 6), 48 h
  Overall ECG result Abnormal, NCS: 0 n (%)
  Overall ECG result Normal: 6 n (%)
5 mg (N = 6), 72 h
  Overall ECG result Abnormal, NCS: 0 n (%)
  Overall ECG result Normal: 6 n (%)
5 mg (N = 6), Visit 3
  Overall ECG result Abnormal, NCS: 1 n (%)
  Overall ECG result Normal: 5 n (%)
5 mg, subject 9002, 5 h
  QTcF Average: 445 ms
  QTcF Reading 1: 451 ms
  QTcF Reading 2: 446 ms
  QTcF Reading 3: 439 ms
5 mg, subject 9003, 1 h
  QTcF Average: 420 ms
  QTcF Reading 1: 437 ms
  QTcF Reading 2: 411 ms
  QTcF Reading 3: 412 ms
5 mg, subject 9003, 2 h
  QTcF Average: 432 ms
  QTcF Reading 1: 440 ms
  QTcF Reading 2: 434 ms
  QTcF Reading 3: 421 ms
5 mg, subject 9003, 3 h
  QTcF Average: 429 ms
  QTcF Reading 1: 424 ms
  QTcF Reading 2: 427 ms
  QTcF Reading 3: 435 ms
5 mg, subject 9003, 5 h
  QTcF Average: 432 ms
  QTcF Reading 1: 434 ms
  QTcF Reading 2: 435 ms
  QTcF Reading 3: 426 ms
5 mg, subject 9009, 2 h
  QTcF Average: 420 ms
  QTcF Reading 1: 413 ms
  QTcF Reading 2: 431 ms
  QTcF Reading 3: 417 ms
20 mg (N = 6), 0.5 h
  Overall ECG result Abnormal, NCS: 1 (16.7) n (%)
  Overall ECG result Normal: 5 (83.3) n (%)
20 mg (N = 6), 1 h
  Overall ECG result Abnormal, NCS: 1 (16.7) n (%)
  Overall ECG result Normal: 5 (83.3) n (%)
20 mg (N = 6), 2 h
  Overall ECG result Abnormal, NCS: 2 (33.3) n (%)
  Overall ECG result Normal: 4 (66.7) n (%)
20 mg (N = 6), 3 h
  Overall ECG result Abnormal, NCS: 2 (33.3) n (%)
  Overall ECG result Normal: 4 (66.7) n (%)
20 mg (N = 6), 5 h
  Overall ECG result Abnormal, NCS: 1 (16.7) n (%)
  Overall ECG result Normal: 5 (83.3) n (%)
20 mg (N = 6), 8 h
  Overall ECG result Abnormal, NCS: 1 (16.7) n (%)
  Overall ECG result Normal: 5 (83.3) n (%)
20 mg (N = 6), 12 h
  Overall ECG result Abnormal, NCS: 1 (16.7) n (%)
  Overall ECG result Normal: 5 (83.3) n (%)
20 mg (N = 6), 24 h
  Overall ECG result Abnormal, NCS: 1 (16.7) n (%)
  Overall ECG result Normal: 5 (83.3) n (%)
20 mg (N = 6), 48 h
  Overall ECG result Abnormal, NCS: 2 (33.3) n (%)
  Overall ECG result Normal: 4 (66.7) n (%)
20 mg (N = 6), 72 h
  Overall ECG result Abnormal, NCS: 1 (16.7) n (%)
  Overall ECG result Normal: 5 (83.3) n (%)
20 mg (N = 6), Visit 3
  Overall ECG result Abnormal, NCS: 0 n (%)
  Overall ECG result Normal: 6 (100) n (%)
60 mg (N = 6), 0.5 h
  Overall ECG result Abnormal, NCS: 1 (16.7) n (%)
  Overall ECG result Normal: 5 (83.3) n (%)
60 mg (N = 6), 1 h
  Overall ECG result Abnormal, NCS: 2 (33.3) n (%)
  Overall ECG result Normal: 4 (66.7) n (%)
60 mg (N = 6), 2 h
  Overall ECG result Abnormal, NCS: 2 (33.3) n (%)
  Overall ECG result Normal: 4 (66.7) n (%)
60 mg (N = 6), 3 h
  Overall ECG result Abnormal, NCS: 1 (16.7) n (%)
  Overall ECG result Normal: 5 (83.3) n (%)
60 mg (N = 6), 5 h
  Overall ECG result Abnormal, NCS: 1 (16.7) n (%)
  Overall ECG result Normal: 5 (83.3) n (%)
60 mg (N = 6), 8 h
  Overall ECG result Abnormal, NCS: 2 (33.3) n (%)
  Overall ECG result Normal: 4 (66.7) n (%)
60 mg (N = 6), 12 h
  Overall ECG result Abnormal, NCS: 3 (50.0) n (%)
  Overall ECG result Normal: 3 (50.0) n (%)
60 mg (N = 6), 24 h
  Overall ECG result Abnormal, NCS: 2 (33.3) n (%)
  Overall ECG result Normal: 4 (66.7) n (%)
60 mg (N = 6), 48 h
  Overall ECG result Abnormal, NCS: 2 (33.3) n (%)
  Overall ECG result Normal: 4 (66.7) n (%)
60 mg (N = 6), 72 h
  Overall ECG result Abnormal, NCS: 1 (16.7) n (%)
  Overall ECG result Normal: 5 (83.3) n (%)
60 mg (N = 6), Visit 3
  Overall ECG result Abnormal, NCS: 1 (16.7) n (%)
  Overall ECG result Normal: 5 (83.3) n (%)
100 mg (N = 6), 0.5 h
  Overall ECG result Abnormal, NCS: 1 n (%)
  Overall ECG result Normal: 5 n (%)
100 mg (N = 6), 1 h
  Overall ECG result Abnormal, NCS: 0 n (%)
  Overall ECG result Normal: 6 n (%)
100 mg (N = 6), 2 h
  Overall ECG result Abnormal, NCS: 1 n (%)
  Overall ECG result Normal: 5 n (%)
100 mg (N = 6), 3 h
  Overall ECG result Abnormal, NCS: 3 n (%)
  Overall ECG result Normal: 3 n (%)
100 mg (N = 6), 5 h
  Overall ECG result Abnormal, NCS: 1 n (%)
  Overall ECG result Normal: 5 n (%)
100 mg (N = 6), 8 h
  Overall ECG result Abnormal, NCS: 1 n (%)
  Overall ECG result Normal: 5 n (%)
100 mg (N = 6), 12 h
  Overall ECG result Abnormal, NCS: 0 n (%)
  Overall ECG result Normal: 6 n (%)
100 mg (N = 6), 24 h
  Overall ECG result Abnormal, NCS: 1 n (%)
  Overall ECG result Normal: 5 n (%)
100 mg (N = 6), 48 h
  Overall ECG result Abnormal, NCS: 1 n (%)
  Overall ECG result Normal: 5 n (%)
100 mg (N = 6), 72 h
  Overall ECG result Abnormal, NCS: 0 n (%)
  Overall ECG result Normal: 6 n (%)
100 mg (N = 6), Visit 3
  Overall ECG result Abnormal, NCS: 0 n (%)
  Overall ECG result Normal: 6 n (%)
100 mg, subject 9056, 0.5 h
  QTcF Average: 425 ms
